Literature values, collected in patent US20050042271A1, “Transdermal delivery system for alkaloids of aconitum species” (priority 1999, published 2005).

Experiments:
[1] = all layers of epidermis and dermis; irreversible damage, scarring

Question: For CCN1C[C@@]2(COC)[C@H]3[C@@H](OC)[C@H]4[C@@H]1[C@]3([C@@H](OC)C[C@H]2OC(C)=O)[C@@H]1C[C@@]2(O)[C@H](OC(=O)c3ccccc3)[C@@H]1[C@]4(OC(C)=O)[C@@H](O)[C@@H]2OC [3-acetylaconitine], which “affinity for opioid receptors” value (opioid receptors) is on record?
Answer: The value was “without affinity for opioid receptors”.

Question: With CCCCCCCCCCCCN1CCCCCC1=O [Azone, laurocapram] as the compound, how does the skin irritation [1] read?
Answer: The skin irritation was “severe skin irritation”.

Question: For CCN1C[C@]2(OC(=O)c3ccccc3NC(C)=O)CC[C@H](OC)[C@@]34[C@@H]2C[C@@H]([C@@H]13)[C@@]1(O)C[C@H](OC)[C@H]2C[C@@H]4[C@]1(O)[C@H]2OC [lappaconitine], which “affinity for opioid receptors” value (opioid receptors) is on record?
Answer: The value was “without affinity for opioid receptors”.

Question: With bulleyaconitine A as the compound, how does the “affinity for opioid receptors” value (opioid receptors) read?
Answer: The value was “without affinity for opioid receptors”.
